Target: T1, Kv7.2 (Homo sapiens, UniProt O43526)
T1 construct: expressed in transfected cells
Assay: Activation of Kv7.2 (in vitro assay, concentration response curve)
Assay type: cell-based
Conditions: for Emax: Kv7.2 activation max %; for EC50: activation of Kv7.2
Description: The term “EC50” in this application is defined as: the agonistic effect of a compound can be determined by testing the compound in an in vitro assay as described herein, whereby the effect of the compound is measured across a range of compound concentrations. The resulting data is plotted as a concentration response curve, which typically follows a sigmoidal function, whereby the concentration of the compound is plotted on the x axis and the response (agonistic effect) is plotted on the y axis. The term “EC50” is the “half maximal effective concentration” and denotes the concentration of a particular compound required to obtain 50% of the maximum response (Emax) which is observed for that compound in the given in vitro assay.

Row | Compound | Emax [%] | EC50 [nM]
1 | CC1CC(C)(C)CCC1NC(=O)NCc1ccnc(-n2ccnc2)c1 (stereo not drawn) [Example 9, 1-[(2-imidazol-1-ylpyridin-4-yl)methyl]-3-(2,4,4-trimethylcyclohexyl)urea] | 53 | 700
2 | O=C(NCCC1=CCCCC1)NCc1ccnc(-n2cccn2)c1 [Example 10, 1-[2-(cyclohexen-1-yl)ethyl]-3-[(2-pyrazol-1-ylpyridin-4-yl)methyl]urea] | 54 | 1390
3 | O=C(NCc1ccnc(OC(F)F)c1)NCC1CCC1 [Example 13, 1-(cyclobutylmethyl)-3-[[2-(difluoromethoxy)pyridin-4-yl]methyl]urea] | 56 | 330
4 | O=C(NCc1ccnc(-n2cccn2)c1)N[C@H]1C[C@@H]2CC[C@H]1C2 [Example 15, 1-[(1S,2S,4R)-2-bicyclo[2.2.1]heptanyl]-3-[(2-pyrazol-1-ylpyridin-4-yl)methyl]urea] | 78 | 380
5 | O=C(NCc1ccnc(-n2cccn2)c1)N[C@@H]1C[C@H]2CC[C@@H]1C2 [Example 16, 1-[(1R,2R,4S)-2-bicyclo[2.2.1]heptanyl]-3-[(2-pyrazol-1-ylpyridin-4-yl)methyl]urea] | 73 | 390
6 | CC(NC(=O)NCc1ccnc(OC(F)F)c1)C1CCC1 (stereo not drawn) [Example 17, 1-(1-cyclobutylethyl)-3-[[2-(difluoromethoxy)pyridin-4-yl]methyl]urea] | 51 | 510
7 | CC1(C)CCC(NC(=O)NCc2ccnc(OC3COC3)c2)CC1 [Example 18, 1-(4,4-dimethylcyclohexyl)-3-[[2-(oxetan-3-yloxy)pyridin-4-yl]methyl]urea] | 71 | 270
8 | O=C(NCc1ccnc(OC(F)F)c1)NC1CCCC1 [Example 20, 1-cyclopentyl-3-[[2-(difluoromethoxy)pyridin-4-yl]methyl]urea] | 57 | 390
9 | O=C(NCc1ccnc(OCC(F)(F)F)c1)NCC1CCC1 [Example 21, 1-(cyclobutylmethyl)-3-[[2-(2,2,2-trifluoroethoxy)pyridin-4-yl]methyl]urea] | 52 | 190
10 | O=C(NCc1ccnc(OC(F)F)c1)Nc1cccc(Cl)c1 [Example 22, 1-(3-chlorophenyl)-3-[[2-(difluoromethoxy)pyridin-4-yl]methyl]urea] | 41 | 30
11 | O=C(NCc1ccnc(OC(F)F)c1)N[C@@H]1CCOc2ccccc21 [Example 23, 1-[[2-(difluoromethoxy)pyridin-4-yl]methyl]-3-[(4R)-3,4-dihydro-2H-chromen-4-yl]urea] | 52 | 130
12 | CC(NC(=O)NCc1ccnc(OC(F)F)c1)C1CC2CCC1C2 (stereo not drawn) [Example 24, 1-[1-(2-bicyclo[2.2.1]heptanyl)ethyl]-3-[[2-(difluoromethoxy)pyridin-4-yl]methyl]urea] | 76 | 20
13 | CC1CCCC(C)C1NC(=O)NCc1ccnc(OC(F)F)c1 (stereo not drawn) [Example 25, 1-[[2-(difluoromethoxy)pyridin-4-yl]methyl]-3-(2,6-dimethylcyclohexyl)urea] | 75 | 30
14 | CC(C)(C)CNC(=O)NCc1ccnc(OC(F)F)c1 [Example 29, 1-[[2-(difluoromethoxy)pyridin-4-yl]methyl]-3-(2,2-dimethylpropyl)urea] | 63 | 570
15 | O=C(NCc1ccnc(OC(F)F)c1)NCC12CC(C1)C2 [Example 31, 1-(1-bicyclo[1.1.1]pentanylmethyl)-3-[[2-(difluoromethoxy)pyridin-4-yl]methyl]urea] | 57 | 420
16 | O=C(NCc1ccnc(OC(F)F)c1)NCC12CC(F)(C1)C2 [Example 32, 1-[[2-(difluoromethoxy)pyridin-4-yl]methyl]-3-[(3-fluoro-1-bicyclo[1.1.1]pentanyl)methyl]urea] | 42 | 830
17 | CC1(C)CCC(NC(=O)NCc2ccnc(-n3ccnc3)c2)CC1 [Example 37, 1-(4,4-dimethylcyclohexyl)-3-[(2-imidazol-1-ylpyridin-4-yl)methyl]urea] | 59 | 1310
18 | COC1(CNC(=O)NCc2ccnc(OC(F)F)c2)CCC1 [Example 38, 1-[[2-(difluoromethoxy)pyridin-4-yl]methyl]-3-[(1-methoxycyclobutyl)methyl]urea] | 73 | 3730
19 | CC(C)(F)CNC(=O)NCc1ccnc(OC(F)F)c1 [Example 39, 1-[[2-(difluoromethoxy)pyridin-4-yl]methyl]-3-(2-fluoro-2-methylpropyl)urea] | 55 | 1950
20 | O=C(NCc1ccnc(OC(F)F)c1)NCC1(F)CCC1 [Example 40, 1-[[2-(difluoromethoxy)pyridin-4-yl]methyl]-3-[(1-fluorocyclobutyl)methyl]urea] | 58 | 640

Row | Compound | Emax [%] | EC50 [nM]
21 | O=C(NCc1ccnc(-n2cnc(C(F)(F)F)c2)c1)NCC1CCC1 [Example 41, 1-(cyclobutylmethyl)-3-[[2-[4-(trifluoromethyl)imidazol-1-yl]pyridin-4-yl]methyl]urea] | 40 | 1130
22 | O=C(NCc1ccnc(OC(F)F)c1)N[C@H]1C[C@H](C(F)(F)F)C1 [Example 42, 1-[[2-(difluoromethoxy)pyridin-4-yl]methyl]-3-[(1r,3r)-3-(trifluoromethyl)cyclobutyl]urea] | 58 | 70
23 | O=C(NCc1ccnc(OCC(F)(F)F)c1)NC1CCCC1 [Example 43, 1-cyclopentyl-3-[[2-(2,2,2-trifluoroethoxy)pyridin-4-yl]methyl]urea] | 75 | 140
24 | CC(C)(C)CC1(NC(=O)NCc2ccnc(OC(F)F)c2)CC1 [Example 44, 1-[[2-(difluoromethoxy)pyridin-4-yl]methyl]-3-[1-(2,2-dimethylpropyl)cyclopropyl]urea] | 75 | 480
25 | O=C(NCc1ccnc(OC(F)F)c1)NC1CCC1 [Example 45, 1-cyclobutyl-3-[[2-(difluoromethoxy)pyridin-4-yl]methyl]urea] | 62 | 1230
26 | O=C(NCc1ccnc(OC(F)F)c1)NCC1CCCC1 [Example 46, 1-(cyclopentylmethyl)-3-[[2-(difluoromethoxy)pyridin-4-yl]methyl]urea] | 64 | 210
27 | O=C(NCc1ccnc(OC(F)F)c1)NC12CC(C1)C2 [Example 47, 1-(1-bicyclo[1.1.1]pentanyl)-3-[[2-(difluoromethoxy)pyridin-4-yl]methyl]urea] | 65 | 1510
28 | O=C(NCc1ccnc(OC(F)F)c1)NC12CCC(F)(CC1)CC2 [Example 48, 1-[[2-(difluoromethoxy)pyridin-4-yl]methyl]-3-(4-fluoro-1-bicyclo[2.2.2]octanyl)urea] | 54 | 160
29 | COC12CC(NC(=O)NCc3ccnc(OC(F)F)c3)(C1)C2 [Example 49, 1-[[2-(difluoromethoxy)pyridin-4-yl]methyl]-3-(3-methoxy-1-bicyclo[1.1.1]pentanyl)urea] | 48 | 1830
30 | O=C(NCc1ccnc(OC(F)F)c1)NC1(C2CCC2)CC1 [Example 50, 1-(1-cyclobutylcyclopropyl)-3-[[2-(difluoromethoxy)pyridin-4-yl]methyl]urea] | 56 | 300
31 | O=C(NCc1ccnc(OCC2CCC2)c1)N[C@H]1C[C@H](C(F)(F)F)C1 [Example 54, 1-[[2-(cyclobutylmethoxy)pyridin-4-yl]methyl]-3-[(1r,3r)-3-(trifluoromethyl)cyclobutyl]urea] | 62 | 150
32 | O=C(NCc1ccnc(OCC2CC2)c1)N[C@H]1C[C@H](C(F)(F)F)C1 [Example 55, 1-[[2-(cyclopropylmethoxy)pyridin-4-yl]methyl]-3-[(1r,3r)-3-(trifluoromethyl)cyclobutyl]urea] | 51 | 300
33 | O=C(NCc1ccnc(OCC(F)F)c1)N[C@H]1C[C@H](C(F)(F)F)C1 [Example 56, 1-[[2-(2,2-difluoroethoxy)pyridin-4-yl]methyl]-3-[(1r,3r)-3-(trifluoromethyl)cyclobutyl]urea] | 56 | 340
34 | CC(F)(F)c1cc(CNC(=O)N[C@H]2C[C@H](C(F)(F)F)C2)ccn1 [Example 57, 1-[[2-(1,1-difluoroethyl)pyridin-4-yl]methyl]-3-[(1r,3r)-3-(trifluoromethyl)cyclobutyl]urea] | 60 | 610
35 | O=C(NCc1ccnc(C(F)(F)F)c1)N[C@H]1C[C@H](C(F)(F)F)C1 [Example 58, 1-[(1r,3r)-3-(trifluoromethyl)cyclobutyl]-3-[[2-(trifluoromethyl)pyridin-4-yl]methyl]urea] | 42 | 340
36 | CCC1CC(NC(=O)NCc2ccnc(OC(F)F)c2)C1 (stereo not drawn) [Example 60, 1-[[2-(difluoromethoxy)pyridin-4-yl]methyl]-3-(3-ethylcyclobutyl)urea] | 77 | 140
37 | O=C(NCc1ccnc(OC(F)F)c1)NCC1CC(C(F)(F)F)C1 (stereo not drawn) [Example 62, 1-[[2-(difluoromethoxy)pyridin-4-yl]methyl]-3-[[3-(trifluoromethyl)cyclobutyl]methyl]urea] | 43 | 750
38 | N#CCOc1cc(CNC(=O)N[C@H]2C[C@H](C(F)(F)F)C2)ccn1 [Example 63, 1-[[2-(cyanomethoxy)pyridin-4-yl]methyl]-3-[(1r,3r)-3-(trifluoromethyl)cyclobutyl]urea] | 66 | 250
39 | O=C(NCc1ccnc(CC(F)(F)F)c1)N[C@H]1C[C@H](C(F)(F)F)C1 [Example 64, 1-[[2-(2,2,2-trifluoroethyl)pyridin-4-yl]methyl]-3-[(1r,3r)-3-(trifluoromethyl)cyclobutyl]urea] | 70 | 340

From US20250074901A1, “NOVEL HETEROARYL COMPOUNDS” (ICAGEN, LLC, priority 2021, published 2025)
